From US20210401786A1, “COMPOSITION FOR TREATING BURN WOUNDS” (priority 2020, published 2021)
“And” between values parts separate entries of the source, which are not always exact repeats. Equal values may be shown once.

Tests used:
Format in all cases: in vivo, Guangxi Bama mini-pigs
[1] = system: porcine full-thickness burn wounds; experiment: Porcine full-thickness burn wound healing experiment; settings: for Wound healing time (days, X +/− S): 9 wounds per group
Experimental: (2) Experimental animals: Three female Guangxi Bama mini-pigs are 19-21 kilograms (provided by Tianjin Bainong Laboratory Animal Breeding Technology Co., Ltd., Tianjin, China). Animals were housed in isolated steel cages (80×100×110 cm^3) at 25° C. under natural lighting in the Experimental Animal Center, after thoroughly disinfecting the breeding room and the cages for animals with disinfectants and ultraviolet lamps. Non-experimental personnel are strictly prohibited from entering the breeding room during the experiment Animals were fed with standard pig chow twice daily, 150 grains at a time, and had access to water ad libitum (water is of the clean standard for tap water). The breeding room and cage are disinfected regularly on a weekly basis, and the feed tank and the water sink are cleaned before each feeding.
(3) Creation of porcine full-thickness burn wound models: The miniature pig was raised conventionally, fasted for 12 h, laid on one side, and injected with sumianxin injection into the hip muscle. Once anesthetized, the miniature pig was transferred to an operating table and a ventilation tube was placed in the mouth. After disinfection of the back of the ear, an indwelling needle of the auricle vein was placed for adequate analgesia and sedation. The surgical area on the back was prepared, disinfected with iodophor, on which a sterile sheet was spread, and an expected site of a burn was marked. The aluminum block mold (the net weight of the aluminum block mold is 265 g, and the load is 1 kg) was heated to 96° C. for 10 minutes, and was in close contact with the skin for 45 seconds. Each pig had 9 wounds. The operation on the back of the 3 mini pigs is consistent. After the operation, the wounds were disinfected with iodophor, on which cotton pads dressing and elastic sleeves were applied. Antibiotics were injected intravenously to prevent infection, and 2 ml of the awakening agent Lu Xingning was injected intravenously. The pigs were then transferred to the cages. One hour after waking up, the pigs were fed and given oral rehydration saline. Activities and signs of the pigs were closely observed. After the burn injury, local debridement and different treatments were performed on the wounds. Three weeks after injury, the wounds were covered by necrotic eschar, without exudate and dissolution reaction. Excisional debridement down to the fat layer was performed. Wounds were then dressed and covered with elasticated jackets to prevent animal-initiated damage. Preemptive antibiotics and analeptic Lu Xingning were administered i.v., then the animals were transferred to individual cages, and monitored closely for adverse outcomes during their post-procedure recovery. Post-surgical pain was managed with oral analgesia.
In order to verify the therapeutic effect of the composition of this application on burn wounds, the composition of Example 3 of this application, recombinant human epidermal growth factor rhEGF (5000 IU/mL, 15 mL, Shenzhen Watsin Genetech Ltd.) and physiological saline were used respectively to treat the full-thickness burn wounds of the pigs.
The wounds were photographed and measured at day 7, 14, 21, 28 after different treatments. It can be seen from FIG. 2 that the new granulation tissue of the wound is fresh and rosy without exudation. […]

[2] = system: healed epidermis (proliferative layer and differentiated layer); experiment: Histologic epidermal thickness of healed porcine burn wounds
Experimental: (§1) An immunohistochemistry analysis was performed to identify the localization and expression of specific molecular markers of keratinocytes in the healed epidermis.
The epidermis partitions into two layers: a proliferative layer and a differentiated layer.

[3] = system: P63; experiment: Immunohistochemistry of healed epidermis, IOD of P63; settings: 4 weeks after treatment, Image-Pro Plus 6.0
Experimental: as §1
(§2) It can be seen from FIG. 6 that the nuclear transcription factor P63 was mainly expressed in undifferentiated proliferating keratinocytes located in the basal layer. CK 10 was mainly expressed in mature differentiating keratinocytes. The expression of P63 and CK10 protein indicate the proliferation and differentiation of keratinocytes during epithelialization and repair of wounds. The higher the expression of P63 and CK10 protein, the faster the cells proliferate and differentiate. In the late stage of wound repair, fibroblasts secrete more collagen fibers, and a large number of collagen fibers increase and are densely arranged. Masson staining is used to mark the subcutaneous collagen fibers as green. The structure of each layer of the epidermis treated with the present invention is clear. The proliferative layer and the differentiated layer can be clearly identified by immunohistochemical staining.
(§3) Integrated optical density (IOD) values analysis of immunohistological images of P63 and CK10 are performed by Image-Pro Plus 6.0, as shown in Table 3 and FIGS. 8 to 9. […]

[4] = system: CK10; experiment: Immunohistochemistry of healed epidermis, IOD of CK10; settings: 4 weeks after treatment, Image-Pro Plus 6.0
Experimental: as §1, §2, §3

recombinant human epidermal growth factor [rhEGF]
wound healing, gross appearance ([1]; FIG. 2, versus saline group): heal faster than those of the saline group
residual wound area ([1]; FIG. 3, compared to the saline group, p<0.05): obviously reduced wound area at day 28
wound healing rate ([1]; FIG. 4, compared to the saline group, p<0.05): obviously improved the wound healing rate at day 7, 14, 21
Wound healing time (days, X +/− S) ([1]; Test Example 1, time to complete epithelialization): 23.56±4.85 days and 23.56 ± 4.85^2 days
Wound healing time (days, X +/− S) ([1]; Test Example 3): 23.56 ± 4.85^2 days
Thickness of differentiated layer (X +/− S) [2]: 246.20 μm
Thickness of proliferative layer (X +/− S) [2]: 35.92 μm
IOD (P63) (X +/− S) [3]: 21929.27
IOD (CK10) (X +/− S) [4]: 395254.15
